Common to all, as to assay type: in vivo
The test system of test [1] is Echinochloa crus-galli (ECHCG). Nature of the test: Test Example 1 pre-emergence herbicidal activity. The conditions noted are these: Echinochloa crus-galli, 480 h, rate 250 g/ha, evaluated 20 days later, read-out: Pre-emergence activity ECHCG (100=total damage to plant; 0=no damage to plant). Summed up:
(§1)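 Once sown in standard soil, pots received an aqueous spray of the formulated active ingredient, either after one day or after ten days of controlled glasshouse growth. Plants then grew under optimum greenhouse conditions. Herbicidal effect was assessed visually 15 (post-emergence) or 20 (pre-emergence) days later, 100 meaning total plant damage.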

Test [2] has as its system Digitaria sanguinalis (DIGSA). The experiment in a line: Test Example 1 pre-emergence herbicidal activity. The note with it: Digitaria sanguinalis, 480 h, rate 250 g/ha, evaluated 20 days later, read-out: Pre-emergence activity DIGSA (100=total damage to plant; 0=no damage to plant). Summed up: as §1
For test [3], the system named is Lolium perenne (LOLPE). The experiment in a line: Test Example 1 pre-emergence herbicidal activity. The note with it: Lolium perenne, 480 h, rate 250 g/ha, evaluated 20 days later, read-out: Pre-emergence activity LOLPE (100=total damage to plant; 0=no damage to plant). Put shortly: as §1
Test [4] concerns Avena fatua (AVEFA). Nature of the test: Test Example 1 pre-emergence herbicidal activity. The conditions noted are these: rate 250 g/ha, evaluated 20 days later; for pest or weed control at 250 g/ha: Avena fatua, 480 h, read-out: Pre-emergence activity AVEFA (100=total damage to plant; 0=no damage to plant). Put shortly:
as §1

For test [5], the system named is Alopecurus myosuroides (ALOMY). The experiment in a line: Test Example 1 pre-emergence herbicidal activity. The conditions noted are these: rate 250 g/ha, evaluated 20 days later; for pest or weed control at 250 g/ha: Alopecurus myosuroides, 480 h, read-out: Pre-emergence activity ALOMY (100=total damage to plant; 0=no damage to plant). Put shortly:
as §1

The subject of test [6] is Setaria faberi (SETFA). The experiment in a line: Test Example 1 pre-emergence herbicidal activity. The conditions noted are these: Setaria faberi, 480 h, rate 250 g/ha, evaluated 20 days later, read-out: Pre-emergence activity SETFA (100=total damage to plant; 0=no damage to plant). Put shortly:
as §1

Test [7] deals with Echinochloa crus-galli (ECHCG). Nature of the test: Test Example 1 post-emergence herbicidal activity. The conditions noted are these: 360 h, rate 125 g/ha, evaluated 15 days later, read-out: Post-emergence activity ECHCG (100=total damage to plant; 0=no damage to plant). Summed up: as §1
Test [8] concerns Digitaria sanguinalis (DIGSA). The experiment in a line: Test Example 1 post-emergence herbicidal activity. The conditions noted are these: 360 h, rate 125 g/ha, evaluated 15 days later, read-out: Post-emergence activity DIGSA (100=total damage to plant; 0=no damage to plant). Summed up: as §1
Test [9] concerns Lolium perenne (LOLPE). The experiment in a line: Test Example 1 post-emergence herbicidal activity. The conditions noted are these: 360 h, rate 125 g/ha, evaluated 15 days later, read-out: Post-emergence activity LOLPE (100=total damage to plant; 0=no damage to plant). Put shortly: as §1
The subject of test [10] is Avena fatua (AVEFA). The experiment in a line: Test Example 1 post-emergence herbicidal activity. The note with it: 360 h, rate 125 g/ha, evaluated 15 days later, read-out: Post-emergence activity AVEFA (100=total damage to plant; 0=no damage to plant). Put shortly:
as §1

Test [11] relates to Alopecurus myosuroides (ALOMY). The experiment in a line: Test Example 1 post-emergence herbicidal activity. The note with it: 360 h, rate 125 g/ha, evaluated 15 days later, read-out: Post-emergence activity ALOMY (100=total damage to plant; 0=no damage to plant). Summed up:
as §1

The test system of test [12] is Setaria faberi (SETFA). Nature of the test: Test Example 1 post-emergence herbicidal activity. The note with it: 360 h, rate 125 g/ha, evaluated 15 days later, read-out: Post-emergence activity SETFA (100=total damage to plant; 0=no damage to plant). Summed up:
as §1

On to `CCc1cc(C)cc(CC)c1C1=C(O)[C@@H]2[C@@H]3O[C@@H](C[C@H]3c3ccc(C)cc3Cl)[C@@H]2C1=O` [Example T143], for which the pest or weed control at 250 g/ha in test [1] amounted to 10%; in [2] it was 80%; with Lolium perenne (LOLPE) [3] it was 70%; with Avena fatua (AVEFA) [4] it was 20%; in [5], 50%; in the test with Setaria faberi (SETFA) [6], 70%. The pest or weed control at 125 g/ha in [7] was determined as 70%; in test [8], 60%; with Lolium perenne (LOLPE) [9], 30%; with Avena fatua (AVEFA) [10], 60%; in test [11], 40%; in the test with Setaria faberi (SETFA) [12], 40%.
Consider `CCCCC[C@]12C=C[C@H](O1)[C@@H]1C(=O)C(c3c(C)cc(C)cc3C)=C(O)[C@@H]12` (racemic) [Example T42], for which the pest or weed control at 250 g/ha came out at 30% in test [1]; 0% in test [2]; 0% with Lolium perenne (LOLPE) [3]; 10% in the test on Avena fatua (AVEFA) [4]; 0% in [5]; 0% in the test with Setaria faberi (SETFA) [6]. Besides, the pest or weed control at 125 g/ha stood at 60% in test [7]; 20% in test [8]; 10% with Lolium perenne (LOLPE) [9]; 0% in the test on Avena fatua (AVEFA) [10]; 0% in test [11]; 0% with Setaria faberi (SETFA) [12].
For `CCc1cc(C)cc(CC)c1C1=C(O)[C@@H]2[C@@H]3O[C@@H](C[C@H]3c3ccc(SC)cc3)[C@@H]2C1=O` [Example T162], the pest or weed control at 250 g/ha in [1] was determined as 80%; in test [2] it was 40%; in the test on Lolium perenne (LOLPE) [3] it was 90%; with Avena fatua (AVEFA) [4] it was 70%; in test [5], 70%; in the test on Setaria faberi (SETFA) [6], 10%. In addition, the pest or weed control at 125 g/ha in test [7] amounted to 100%; in test [8] it was 100%; in the test on Lolium perenne (LOLPE) [9] it was 70%; with Avena fatua (AVEFA) [10], 90%; in test [11] it was 90%; in the test on Setaria faberi (SETFA) [12] it was 100%.
With `CCc1cc(C)cc(CC)c1C1=C(OC(=O)C2CCCCC2)[C@H]2[C@@H](C1=O)[C@@H]1CC[C@H]2O1` (racemic) [Example P17], the pest or weed control at 250 g/ha in [1] turned out to be 100%; in test [2] it was 100%; with Lolium perenne (LOLPE) [3], 100%; with Avena fatua (AVEFA) [4], 90%; in test [5], 90%; in the test on Setaria faberi (SETFA) [6], 100%. Besides, the pest or weed control at 125 g/ha in test [7] stood at 100%; in [8], 100%; with Lolium perenne (LOLPE) [9] it was 100%; with Avena fatua (AVEFA) [10], 90%; in [11], 100%; in the test on Setaria faberi (SETFA) [12], 100%.
In the case of `CC[C@]12C=C[C@H](O1)[C@@H]1C(=O)C(c3c(C)cc(C)cc3C)=C(O)[C@@H]12` [Example T40], the pest or weed control at 250 g/ha was 40% in test [1]; 60% in test [2]; 60% in the test on Lolium perenne (LOLPE) [3]; 60% in the test on Avena fatua (AVEFA) [4]; 50% in test [5]; 40% in the test on Setaria faberi (SETFA) [6]. In addition, the pest or weed control at 125 g/ha is 70% in test [7]; 70% in test [8]; 30% in the test on Lolium perenne (LOLPE) [9]; 30% with Avena fatua (AVEFA) [10]; 40% in test [11]; 70% with Setaria faberi (SETFA) [12].
In the case of `CCc1cc(C)cc(CC)c1C1=C(O)[C@H]2[C@@H](C1=O)[C@]1(C)CC[C@@]2(C)O1` [Example T7], the pest or weed control at 250 g/ha was found to be 90% in test [1]; 80% in test [2]; 100% in the test with Lolium perenne (LOLPE) [3]; 80% in the test with Avena fatua (AVEFA) [4]; 100% in [5]; 90% with Setaria faberi (SETFA) [6]. Moreover, the pest or weed control at 125 g/ha worked out at 90% in test [7]; 70% in test [8]; 90% in the test with Lolium perenne (LOLPE) [9]; 90% in the test with Avena fatua (AVEFA) [10]; 100% in test [11]; 90% in the test on Setaria faberi (SETFA) [12].
Take `CCc1cc(C)cc(C)c1C1=C(O)[C@H]2[C@@H](C1=O)[C@@H]1CC[C@H]2O1` [Example T2]: the pest or weed control at 250 g/ha was determined as 100% in test [1]; 100% in [2]; 100% in the test on Lolium perenne (LOLPE) [3]; 100% in the test on Avena fatua (AVEFA) [4]; 100% in test [5]; 90% with Setaria faberi (SETFA) [6]. In addition, the pest or weed control at 125 g/ha in test [7] was found to be 100%; in test [8], 100%; in the test on Lolium perenne (LOLPE) [9], 100%; in the test with Avena fatua (AVEFA) [10], 90%; in test [11], 100%; in the test on Setaria faberi (SETFA) [12], 80%.
For the molecule `Cc1cc(C)c(C2=C(O)[C@H]3[C@@H](C2=O)[C@@H]2CC[C@@]3(C)O2)c(C)c1` (racemic) [Example T9], the pest or weed control at 250 g/ha (in test [1]; in test [2]; in the test on Lolium perenne (LOLPE) [3]; with Setaria faberi (SETFA) [6]) was 100% each time. For the same molecule, the “Pre-emergence activity AVEFA (100=total damage to plant; 0=no damage to plant)” value in the test with Avena fatua (AVEFA) [4] was 40. Also, in [5], the “Pre-emergence activity ALOMY (100=total damage to plant; 0=no damage to plant)” value was found to be 70. Besides, the pest or weed control at 125 g/ha was 100% in [7]; 100% in test [8]; 70% in the test on Lolium perenne (LOLPE) [9]; 60% in the test on Avena fatua (AVEFA) [10]; 80% in test [11]; 80% in the test with Setaria faberi (SETFA) [12].
Consider `Cc1cc(C)c(C2=C(O)[C@@H]3[C@@H]4O[C@@H](C[C@H]4c4cccc(C#N)c4)[C@@H]3C2=O)c(C)c1` [Example T89], for which the pest or weed control at 250 g/ha in test [1] was 20%; in test [2], 30%; in the test on Lolium perenne (LOLPE) [3] it was 40%; in the test on Avena fatua (AVEFA) [4], 60%; in test [5], 20%; with Setaria faberi (SETFA) [6], 30%. Moreover, the pest or weed control at 125 g/ha in test [7] came to 100%; in test [8], 90%; with Lolium perenne (LOLPE) [9], 80%; in the test with Avena fatua (AVEFA) [10], 80%; in test [11], 80%; in the test on Setaria faberi (SETFA) [12] it was 90%.
Take `CCc1cc(C)cc(CC)c1C1=C(O)[C@@H]2[C@@H]3O[C@@H](C[C@H]3c3ccc(Cl)cc3C)[C@@H]2C1=O` (racemic) [Example T165]: the pest or weed control at 250 g/ha in [1] was 80%; in [2] it was 50%; with Lolium perenne (LOLPE) [3], 80%; in the test with Avena fatua (AVEFA) [4] it was 20%; in [5] it was 70%; in the test with Setaria faberi (SETFA) [6], 70%. The pest or weed control at 125 g/ha is 100% in test [7]; 70% in test [8]; 80% with Lolium perenne (LOLPE) [9]; 30% in the test with Avena fatua (AVEFA) [10]; 80% in test [11]; 90% in the test with Setaria faberi (SETFA) [12].

The values are drawn from patent US8754242B2, “Herbicides” (Syngenta Crop Protection LLC, priority 2007, dated 2014).
